Reference: PubChem BioAssay AID1259407 (Chemical Carcinogenesis Research Information System (CCRIS), 2018)
Calls of active or inactive are those of the source. The rule behind the calls is not given here.

Test system: CCRIS mutagenicity, Ames/micronucleus/aberration tests
Experiment: CCRIS mutagenicity studies
[1] = Test System: AMES SALMONELLA TYPHIMURIUM, Strain/Indicator: TA98, Metabolic Activation: NONE, Method: STANDARD PLATE
[2] = Test System: AMES SALMONELLA TYPHIMURIUM, Strain/Indicator: TA100, Metabolic Activation: NONE, Method: STANDARD PLATE
[3] = Test System: AMES SALMONELLA TYPHIMURIUM, Strain/Indicator: TA1538, Metabolic Activation: RAT, LIVER, S-9, AROCLOR 1254, Method: STANDARD PLATE
[4] = Test System: AMES SALMONELLA TYPHIMURIUM, Strain/Indicator: TA98, Metabolic Activation: NONE, Method: PREINCUBATION
[5] = Test System: AMES SALMONELLA TYPHIMURIUM, Strain/Indicator: TA1538, Metabolic Activation: NONE, Method: STANDARD PLATE

SMILES: Nc1c(N=Nc2ccc(-c3ccc(N=Nc4cc(S(=O)(=O)O)c5ccccc5c4N)cc3)cc2)cc(S(=O)(=O)O)c2ccccc12
- mutagenic call (Test System: AMES SALMONELLA TYPHIMURIUM, Strain/Indicator: TA98, Metabolic Activation: HAMSTER, LIVER, S-9, Method: PREINCUBATION (PRIVAL METHOD)): active; positive
- mutagenic call [1]: inactive; negative
- mutagenic call (Test System: AMES SALMONELLA TYPHIMURIUM, Strain/Indicator: TA98, Metabolic Activation: RAT, LIVER, S-9, PHENOBARBITAL, Method: STANDARD PLATE): inactive; negative
- mutagenic call [2]: active; positive
- mutagenic call (Test System: AMES SALMONELLA TYPHIMURIUM, Strain/Indicator: TA100, Metabolic Activation: RAT, LIVER, S-9, PHENOBARBITAL, Method: STANDARD PLATE): inactive; negative
- mutagenic call (Test System: AMES SALMONELLA TYPHIMURIUM, Strain/Indicator: TA1538, Metabolic Activation: HAMSTER, LIVER, S-9, Method: STANDARD PLATE): inactive; negative
- mutagenic call [3]: inactive; negative
- mutagenic call (Test System: Ames Salmonella typhimurium, Strain/Indicator: TA98, Metabolic Activation: Rat, Liver, S-9, Sodium phenobarbitone, Method: Preincubation): inactive; negative, test conducted under both aerobic and anaerobic conditions.
- mutagenic call (Test System: Ames Salmonella typhimurium, Strain/Indicator: TA1538, Metabolic Activation: Rat, Liver, S-9, Sodium phenobarbitone, Method: Preincubation): inactive; negative, test conducted under both aerobic and anaerobic conditions.

SMILES: CC1CC(OC(=O)c2ccccc2O)CC(C)(C)C1 (configuration not stated)
- mutagenic call (Test System: AMES SALMONELLA TYPHIMURIUM, Strain/Indicator: TA98, Metabolic Activation: HAMSTER, LIVER, S-9, AROCLOR 1254 (10%), Method: PREINCUBATION): inactive; negative
- mutagenic call [4]: inactive; negative
- mutagenic call (Test System: AMES SALMONELLA TYPHIMURIUM, Strain/Indicator: TA98, Metabolic Activation: RAT, LIVER, S-9, AROCLOR 1254 (10%), Method: PREINCUBATION): inactive; negative
- mutagenic call (Test System: AMES SALMONELLA TYPHIMURIUM, Strain/Indicator: TA100, Metabolic Activation: HAMSTER, LIVER, S-9, AROCLOR 1254 (10%), Method: PREINCUBATION): inactive; negative
- mutagenic call (Test System: AMES SALMONELLA TYPHIMURIUM, Strain/Indicator: TA100, Metabolic Activation: NONE, Method: PREINCUBATION): inactive; negative
- mutagenic call (Test System: AMES SALMONELLA TYPHIMURIUM, Strain/Indicator: TA100, Metabolic Activation: RAT, LIVER, S-9, AROCLOR 1254 (10%), Method: PREINCUBATION): inactive; negative
- mutagenic call (Test System: AMES SALMONELLA TYPHIMURIUM, Strain/Indicator: TA1535, Metabolic Activation: HAMSTER, LIVER, S-9, AROCLOR 1254 (10%), Method: PREINCUBATION): inactive; negative
- mutagenic call (Test System: AMES SALMONELLA TYPHIMURIUM, Strain/Indicator: TA1535, Metabolic Activation: NONE, Method: PREINCUBATION): inactive; negative
- mutagenic call (Test System: AMES SALMONELLA TYPHIMURIUM, Strain/Indicator: TA1535, Metabolic Activation: RAT, LIVER, S-9, AROCLOR 1254 (10%), Method: PREINCUBATION): inactive; negative
- mutagenic call (Test System: AMES SALMONELLA TYPHIMURIUM, Strain/Indicator: TA1537, Metabolic Activation: HAMSTER, LIVER, S-9, AROCLOR 1254 (10%), Method: PREINCUBATION): inactive; negative
- mutagenic call (Test System: AMES SALMONELLA TYPHIMURIUM, Strain/Indicator: TA1537, Metabolic Activation: NONE, Method: PREINCUBATION): inactive; negative
- mutagenic call (Test System: AMES SALMONELLA TYPHIMURIUM, Strain/Indicator: TA1537, Metabolic Activation: RAT, LIVER, S-9, AROCLOR 1254 (10%), Method: PREINCUBATION): inactive; negative

SMILES: O=[N+]([O-])c1ccc2ccc3cc4c(c5ccc1c2c35)C=C[C@H](O)[C@H]4O
- mutagenic call (Test System: AMES SALMONELLA TYPHIMURIUM, Strain/Indicator: TA98(1,8-DNP6), Metabolic Activation: NONE): active; positive
- mutagenic call (Test System: AMES SALMONELLA TYPHIMURIUM, Strain/Indicator: TA98(1,8-DNP6), Metabolic Activation: RAT, LIVER, S-9, AROCLOR 1254): active; positive
- mutagenic call (Test System: AMES SALMONELLA TYPHIMURIUM, Strain/Indicator: TA98(NR), Metabolic Activation: NONE): active; positive
- mutagenic call (Test System: AMES SALMONELLA TYPHIMURIUM, Strain/Indicator: TA98(NR), Metabolic Activation: RAT, LIVER, S-9, AROCLOR 1254): active; positive
- mutagenic call (Test System: AMES SALMONELLA TYPHIMURIUM, Strain/Indicator: TA98, Metabolic Activation: NONE): active; positive
- mutagenic call (Test System: AMES SALMONELLA TYPHIMURIUM, Strain/Indicator: TA98, Metabolic Activation: RAT, LIVER, S-9, AROCLOR 1254): active; positive
- mutagenic call (Test System: CHINESE HAMSTER OVARY, Strain/Indicator: CHO-K1-BH4 (HGPRT), Metabolic Activation: NONE): active; positive
- mutagenic call (Test System: CHINESE HAMSTER OVARY, Strain/Indicator: CHO-K1-BH4 (HGPRT), Metabolic Activation: RAT, LIVER, S-9, 3-METHYLCHOLANTHRENE): active; positive

SMILES: C[C@@H]1O[C@@H](O[C@H]2C[C@](O)(C(=O)CO)Cc3c(O)c4c(c(O)c32)C(=O)c2ccccc2C4=O)C[C@H](N)[C@@H]1O
- mutagenic call (Test System: AMES SALMONELLA TYPHIMURIUM, Strain/Indicator: GW257, Metabolic Activation: NONE, Method: STANDARD PLATE): active; positive
- mutagenic call (Test System: AMES SALMONELLA TYPHIMURIUM, Strain/Indicator: TA97, Metabolic Activation: NONE, Method: STANDARD PLATE): inactive; negative
- mutagenic call [4]: active; positive
- mutagenic call [1]: active; positive
- mutagenic call [2]: active; positive
- mutagenic call (Test System: AMES SALMONELLA TYPHIMURIUM, Strain/Indicator: TA104, Metabolic Activation: NONE, Method: STANDARD PLATE): inactive; negative
- mutagenic call [5]: active; positive
- mutagenic call (Test System: AMES SALMONELLA TYPHIMURIUM, Strain/Indicator: TA2637, Metabolic Activation: NONE, Method: STANDARD PLATE): active; positive
- mutagenic call (Test System: CHINESE HAMSTER V-79, Strain/Indicator: V-79/6-THIOGUANINE, Metabolic Activation: NONE, Method: SUSPENSION/PLATE): active; positive
- mutagenic call (Test System: CHINESE HAMSTER V-79, Strain/Indicator: V-79/6-THIOGUANINE, Metabolic Activation: RAT, LIVER, HOMOGENATE, Method: SUSPENSION/PLATE): inactive; negative
- mutagenic call (Test System: UDS RAT HEPATOCYTES, Strain/Indicator: THY INCORP, Metabolic Activation: NONE, Method: AUTOMATIC COLONY COUNTER): active; positive

SMILES: CCCCCCC(=O)OCC
- mutagenic call (Test System: AMES SALMONELLA TYPHIMURIUM, Strain/Indicator: TA97, Metabolic Activation: NONE, Method: PREINCUBATION): inactive; negative
- mutagenic call (Test System: AMES SALMONELLA TYPHIMURIUM, Strain/Indicator: TA97, Metabolic Activation: RAT, LIVER, S-9, AROCLOR 1254, Method: PREINCUBATION): inactive; negative
- mutagenic call (Test System: AMES SALMONELLA TYPHIMURIUM, Strain/Indicator: TA102, Metabolic Activation: NONE, Method: PREINCUBATION): inactive; negative
- mutagenic call (Test System: AMES SALMONELLA TYPHIMURIUM, Strain/Indicator: TA102, Metabolic Activation: RAT, LIVER, S-9, AROCLOR 1254, Method: PREINCUBATION): inactive; negative

SMILES: CCN(CC)c1ccc(N=Nc2ccc(N=Nc3c(S(=O)(=O)O)cc4ccc(N)cc4c3O)c(OCCO)c2)cc1
- mutagenic call [1]: inactive; negative
- mutagenic call (Test System: AMES SALMONELLA TYPHIMURIUM, Strain/Indicator: TA98, Metabolic Activation: RAT, LIVER, S-9, AROCLOR 1254, Method: STANDARD PLATE): active; positive
- mutagenic call [2]: inactive; negative
- mutagenic call (Test System: AMES SALMONELLA TYPHIMURIUM, Strain/Indicator: TA100, Metabolic Activation: RAT, LIVER, S-9, AROCLOR 1254, Method: STANDARD PLATE): inactive; negative
- mutagenic call [5]: inactive; negative
- mutagenic call [3]: active; positive

SMILES: Cc1cc2c3ccccc3cc3ccc4cccc1c4c32
- mutagenic call (Test System: AMES SALMONELLA TYPHIMURIUM, Strain/Indicator: TA100, Metabolic Activation: RAT, INTACT HEPATOCYTES, AROCLOR 1254, Method: PREINCUBATION): active; positive
- mutagenic call (Test System: AMES SALMONELLA TYPHIMURIUM, Strain/Indicator: TA100, Metabolic Activation: RAT, NADPH-FORTIFIED HOMOGENIZED HEPATOCYTES, AROCLOR 1254, Method: PREINCUBATION): active; positive
